From patent US12653809B2, “Urea, amide, and substituted heteroaryl compounds for CBL-B inhibition” (Nurix Therapeutics, Inc., priority 2019, dated 2026)
Like-named read-outs stand apart in the source and are kept apart here.

Target: T1, Cbl-b (truncated variant, UniProt number Q13191) (Homo sapiens, UniProt Q13191)
T1 construct: made in house
Assay: Cbl-b activity assay (TR-FRET, interaction of Cbl-b with UbcH5B-Ub)
Format: biochemical
Source text: As described in Biological Example 1A, a Cbl-b activity assay (Cbl-b inhibition assay) used to measure the IC50 values for Cbl-b inhibition uses a mixture comprising candidate compound, Cbl-b (truncated, with an Avitag, and biotinylated), a fluorescently-labeled E2 enzyme UbcH5B labelled with ubiquitin conjugated to BODIPY-fluorescein (UbcH5B-Ub), streptavidin-terbium, and assay buffer. In one embodiment, the Cbl-b activity assay (Cbl-b inhibition assay) used to measure IC50 for inhibition of Cbl-b uses the conditions described in Biological Example 1A with 12 nM Cbl-b. […] In another embodiment, the Cbl-b activity assay (Cbl-b inhibition assay) used to measure IC50 for inhibition of Cbl-b uses the conditions described in Biological Example 1B, with candidate compound, 0.125 nM Cbl-b (truncated, with an avitag, and biotinylated), fluorescently labelled inhibitor probe, and assay buffer. Displacement of the inhibitor probe indicates Cbl-b activity.
Candidate compounds isolated from screening assays were evaluated for their ability to bind and inhibit Cbl-b, an E3 ubiquitin-protein ligase.
The ability of candidate compounds to inhibit Cbl-b activity was measured by monitoring the interaction of Cbl-b with UbcH5B-Ub in the presence of the candidate compound. A truncated variant of Cbl-b (UniProt number Q13191; SEQ ID NO:1) containing an Avitag at its N-terminus was co-expressed with BirA biotin ligase and purified using a standard protocol (see Dou et al., Nature Structural and Molecular Biology 8: 982-987, 2013; Avidity LLC).
Fluorescently labeled UbcH5B-Ub was prepared by conjugating ubiquitin (Ub), labeled at its N-terminus with Bodipy-Fluorescein, to UbcH5B, an E2 enzyme, harboring a cysteine to lysine mutation at position 85. This mutation is similar to a mutation that was previously reported (see Dou et al., Nature Structural and Molecular Biology 8: 982-987, 2013). Cbl-b activity assays were performed in a 384-well plate at room temperature in a 10 μL reaction volume by pre-incubating 12 nM Cbl-b (final concentration) in an assay buffer containing 50 mM HEPES pH 7.0, 100 mM NaCl, 0.01% Triton X-100, 0.01% BSA, and 1 mM DTT in the presence of a candidate compound in 1% DMSO (final concentration, High Conditions) for one hour. After incubation in the presence of the candidate compound, the plate was incubated for an additional 1.5 hours in the presence of 60 nM Src kinase with 1 mM ATP and 5 mM MgCl2 (final concentrations). Alternatively, compounds were tested as described above with assay buffer containing 50 mM NaCl instead of 100 mM NaCl and 30 nM Src kinase instead of 60 nM Src kinase (Low Conditions). Src kinase was prepared as previously described (see Kobashigawa et al., Proc Natl Acad Sci USA, 108: 20579-20584, 2011). […] The plate was incubated for one hour. Following the one hour incubation, the plates were read for TR-FRET signal at 520/620 nm using Envision plate reader (Perkin Elmer). The presence of a FRET signal that indicated Cbl-b was not inhibited by the compound candidate. The absence of a FRET signal indicated Cbl-b was inhibited by the compound candidate and was therefore a Cbl-b inhibitor.
The resulting data for the Cbl-b activity assays were analyzed using standard methods to report the IC50 values of the tested compounds (Tables 3-4). The resulting data for the Cbl-b binding assay was solvent corrected and double-referenced prior to analysis. All data were globally fit to a steady-state affinity and kinetic binding model where applicable. Compounds were ranked into bins A through D as follows for IC50: A indicates <0.1 μM, B indicates 0.1 μM≤IC50<1 μM, C indicates 1 μM≤IC50<5 μM, and D indicates 5 μM≤IC50.

[1] = Biological Example 1A, low or high conditions not stated, read-out: IC50 values in the Cbl-b inhibition assay of Biological Example 1A
[2] = high conditions: 100 mM NaCl, 60 nM Src kinase, 12 nM Cbl-b, read-out: Cbl-b activity IC50

T1 sequence (Q13191 36-427): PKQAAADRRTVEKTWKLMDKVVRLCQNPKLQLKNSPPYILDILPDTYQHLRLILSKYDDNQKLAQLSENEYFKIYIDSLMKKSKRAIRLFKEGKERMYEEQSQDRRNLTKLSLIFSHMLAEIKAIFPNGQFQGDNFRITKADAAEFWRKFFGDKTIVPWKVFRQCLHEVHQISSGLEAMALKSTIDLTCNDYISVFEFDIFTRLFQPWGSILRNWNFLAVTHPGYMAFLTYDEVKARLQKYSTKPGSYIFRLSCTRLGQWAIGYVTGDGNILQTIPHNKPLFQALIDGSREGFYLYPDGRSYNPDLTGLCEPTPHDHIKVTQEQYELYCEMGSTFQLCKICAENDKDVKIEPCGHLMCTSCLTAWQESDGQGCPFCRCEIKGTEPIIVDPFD

Row | Structure (SMILES) | IC50 [1] | IC50 [2] | IC50 (low conditions: 50 mM NaCl, 30 nM Src kinase, 12 nM Cbl-b, read-out: Cbl-b activity IC50)
1 | Cc1cnnc(NC(=O)Nc2cccc([C@H](C)Sc3nncn3C)c2)c1 [Example 39, (S)-1-(3-(1-((4-methyl-4H-1,2,4-triazol-3-yl)thio)ethyl)phenyl)-3-(5-methylpyridazin-3-yl)urea] | 1 to 5 µM | 1 to 5 µM | 
2 | C[C@H](Cc1nncn1C)c1cccc(-c2n[nH]c3c(N4CCC(O)CC4)ccnc23)c1 [Example 117, (R)-1-(3-(3-(1-(4-methyl-4H-1,2,4-triazol-3-yl)propan-2-yl)phenyl)-1H-pyrazolo[4,3-b]pyridin-7-yl)piperidin-4-ol] |  | 1 to 5 µM | 
3 | C[C@H](Sc1nncn1C)c1cccc(NC(=O)Nc2ccccn2)c1 [Example 2, (S)-1-(3-(1-((4-methyl-4H-1,2,4-triazol-3-yl)thio)ethyl)phenyl)-3-(pyridin-2-yl)urea] | 0.1 to 1 µM |  | 0.1 to 1 µM
4 | C[C@H](Sc1nncn1C)c1cccc(-n2cc(-c3ccc(C(=O)O)cc3)nn2)c1 [Example 81, (S)-4-(1-(3-(1-(4-methyl-4H-1,2,4-triazol-3-ylthio)ethyl)phenyl)-1H-1,2,3-triazol-4-yl)benzoic acid] | ≥ 5 µM | ≥ 5 µM | 
5 | C[C@H](Sc1nncn1C)c1cccc(NC(=O)N2CC(S(C)(=O)=O)C2)c1 [Example 134, 3-methanesulfonyl-N-[3-[(1S)-1-[(4-methyl-4H-1,2,4-triazol-3-yl)sulfanyl]ethyl]phenyl]azetidine-1-carboxamide] |  | ≥ 5 µM | 
6 | C[C@H](Sc1nncn1C)c1cccc(NC(=O)N(C)C2CCC2)c1 [Example 49, (S)-1-cyclobutyl-1-methyl-3-(3-(1-((4-methyl-4H-1,2,4-triazol-3-yl)thio)ethyl)phenyl)urea] |  | ≥ 5 µM | 
7 | Cn1cnnc1[C@@H]1C[C@@H]1c1cccc(NC(=O)N2CCOc3cccnc32)c1 [Example 25, N-(3-((1S,2R)-2-(4-methyl-4H-1,2,4-triazol-3-yl)cyclopropyl)phenyl)-2,3-dihydro-4H-pyrido[3,2-b][1,4]oxazine-4-carboxamide] |  | 0.1 to 1 µM | 
8 | C[C@H](Sc1nncn1C)c1cccc(NC(=O)N2CC(C)(F)C2)c1 [Example 132, 3-fluoro-3-methyl-N-[3-[(1S)-1-[(4-methyl-4H-1,2,4-triazol-3-yl)sulfanyl]ethyl]phenyl]azetidine-1-carboxamide] |  | ≥ 5 µM | 
9 | CC(Sc1nncn1C)c1ccnc(-c2cc(-c3ccccc3)no2)c1 (stereo not shown) [Example 71, 5-(4-(1-((4-methyl-4H-1,2,4-triazol-3-yl)thio)ethyl)pyridin-2-yl)-3-phenylisoxazole] | ≥ 5 µM | ≥ 5 µM | 
10 | C[C@H](Cc1nncn1C)c1cccc(NC(=O)N2CCCc3cccnc32)c1 [Example 9, (R)—N-(3-(1-(4-methyl-4H-1,2,4-triazol-3-yl)propan-2-yl)phenyl)-3,4-dihydro-1,8-naphthyridine-1(2H)-carboxamide] | 0.1 to 1 µM | 0.1 to 1 µM | 
11 | C[C@H](Sc1nncn1C)c1cccc(NC(=O)N2CCn3nccc3C2)c1 [Example 44, (S)—N-(3-(1-((4-methyl-4H-1,2,4-triazol-3-yl)thio)ethyl)phenyl)-6,7-dihydropyrazolo[1,5-a]pyrazine-5(4H)-carboxamide] |  | ≥ 5 µM | 
12 | C[C@H](Sc1nncn1C)c1cccc(NC(=O)N2CCC23CCOC3)c1 (stereo partly drawn) [Example 130, N-(3-((S)-1-((4-methyl-4H-1,2,4-triazol-3-yl)thio)ethyl)phenyl)-6-oxa-1-azaspiro[3.4]octane-1-carboxamide] |  | ≥ 5 µM | 
13 | Cc1ccc2[nH]nc(-c3cccc([C@H](C)Cc4nncn4C)c3)c2n1 [Example 119, (R)-5-methyl-3-(3-(1-(4-methyl-4H-1,2,4-triazol-3-yl)propan-2-yl)phenyl)-1H-pyrazolo [4,3-b]pyridine] |  | 1 to 5 µM | 
14 | C[C@H](Sc1nncn1C)c1cccc(NC(=O)N2CCCCC2)c1 [Example 124, (S)—N-(3-(1-((4-methyl-4H-1,2,4-triazol-3-yl)thio)ethyl)phenyl)piperidine-1-carboxamide] |  | ≥ 5 µM | 
15 | C[C@H](Sc1nncn1C)c1cccc(-n2ncc(-c3ccc(C#N)cc3)n2)c1 [Example 88, (S)-4-(2-(3-(1-(4-methyl-4H-1,2,4-triazol-3-ylthio)ethyl)phenyl)-2H-1,2,3-triazol-4-yl)benzonitrile] | 0.1 to 1 µM | 0.1 to 1 µM | 
16 | C[C@@H](Sc1nncn1C)c1cccc(-c2cc(-c3ccccc3)n[nH]2)c1 [Example 103, (R)-4-methyl-3-((1-(3-(3-phenyl-1H-pyrazol-5-yl)phenyl)ethyl)thio)-4H-1,2,4-triazole] | ≥ 5 µM | ≥ 5 µM | 
17 | CC1CN(C(=O)Nc2cccc([C@H](C)Sc3nncn3C)c2)CC(C)O1 (stereo partly drawn) [Example 42, 2,6-dimethyl-N-(3-((S)-1-((4-methyl-4H-1,2,4-triazol-3-yl)thio)ethyl)phenyl)morpholine-4-carboxamide] |  | ≥ 5 µM | 
18 | C[C@H](Sc1nncn1C)c1cccc(NC(=O)N2CCC3(CNC(=O)C3)C2)c1 (stereo partly drawn) [Example 139, N-(3-((S)-1-((4-methyl-4H-1,2,4-triazol-3-yl)thio)ethyl)phenyl)-8-oxo-2,7-diazaspiro[4.4]nonane-2-carboxamide] |  | ≥ 5 µM | 
19 | COc1cc(N2CCOCC2)ccc1NC(=O)Nc1cccc([C@H](C)Sc2nncn2C)c1 [Example 148, (S)-1-(2-methoxy-4-morpholinophenyl)-3-(3-(1-((4-methyl-4H-1,2,4-triazol-3-yl)thio)ethyl)phenyl)urea] |  | ≥ 5 µM | 
20 | C[C@H](Sc1nncn1C)c1cccc(-n2cc(-c3ccc(C(N)=O)cc3)nn2)c1 [Example 87, (S)-4-(1-(3-(1-(4-methyl-4H-1,2,4-triazol-3-ylthio)ethyl)phenyl)-1H-1,2,3-triazol-4-yl)benzamide] | 1 to 5 µM | 1 to 5 µM | 
21 | C[C@H](Sc1nncn1C)c1cccc(-c2cc(-c3ccc(C#N)cc3)no2)c1 [Example 61, (S)-4-(5-(3-(1-(4-methyl-4H-1,2,4-triazol-3-ylthio)ethyl)phenyl)isoxazol-3-yl)benzonitrile] |  | 1 to 5 µM | 
22 | C[C@H](Sc1nncn1C)c1cccc(-c2cc(-c3ccc(Cl)cc3)no2)c1 [Example 57, (S)-3-(4-chlorophenyl)-5-(3-(1-((4-methyl-4H-1,2,4-triazol-3-yl)thio)ethyl)phenyl)isoxazole] |  | 1 to 5 µM | 
23 | C[C@H](Cc1nncn1C)c1cccc(NC(=O)N2C[C@H](CO)[C@@H](C)C2)c1 (relative stereo) [Example 17, (3R*,4R*)-3-(hydroxymethyl)-4-methyl-N-(3-((R)-1-(4-methyl-4H-1,2,4-triazol-3-yl)propan-2-yl)phenyl)pyrrolidine-1-carboxamide] | 1 to 5 µM | 1 to 5 µM | 
24 | CC1CN(C(=O)Nc2cccc([C@H](C)Sc3nncn3C)c2)CC(=O)N1C (stereo partly drawn) [Example 123, 3,4-dimethyl-N-(3-((S)-1-((4-methyl-4H-1,2,4-triazol-3-yl)thio)ethyl)phenyl)-5-oxopiperazine-1-carboxamide] |  | ≥ 5 µM | 
25 | C[C@H](Cc1nncn1C)c1cccc(C(=O)Nc2cccc(C(F)(F)F)n2)c1 [Example 18, (R)-3-(1-(4-methyl-4H-1,2,4-triazol-3-yl)propan-2-yl)-N-(6-(trifluoromethyl)pyridin-2-yl)benzamide] | ≥ 5 µM | ≥ 5 µM | 
26 | C[C@H](Sc1nncn1C)c1cccc(-n2cc(-c3cccc(CO)c3)nn2)c1 [Example 92, (S)-(3-(1-(3-(1-(4-methyl-4H-1,2,4-triazol-3-ylthio)ethyl)phenyl)-1H-1,2,3-triazol-4-yl)phenyl)methanol] | ≥ 5 µM | ≥ 5 µM | 
